Results published in US10065967B2, “Compounds that are ERK inhibitors” (Merck Sharp & Dohme Corp., priority 2013, dated 2018).
pIC50: −log10 of the molar value.

How the values were obtained:
[1] = molecular target: Active Mouse ERK2 (mERK2) (Mus musculus (Mouse), UniProt P63085); experiment: Active Mouse ERK2 (mERK2) Activity Assay (IMAP-FP); format: biochemical; conditions: phosphorylated active mERK2 0.19 nM, 30 uM ATP, 10 point titration, read-out: ERK 2 MAPK1 Mouse IC50
Protocol: Active Mouse ERK2 (mERK2) Activity Assay:
(§1) Activated ERK2 activity was determined in an IMAP-FP assay (Molecular Devices). Using this assay format, the potency (IC50) of each compound was determined from a 10 point (1:3 serial dilution, 3 μM starting compound concentration) titration curve using the following outlined procedure. To each well of a black Corning 384-well plate (Corning Catalog #3575), 7.5 nL of compound (3333 fold dilution in final assay volume of 25 μL) was dispensed, followed by the addition of 15 μL of kinase buffer (tween containing kinase buffer, Molecular Devices) containing 0.0133 ng/mL (0.316 nM) of phosphorylated active mERK2 enzyme. Following a 15 minute compound & enzyme incubation, each reaction was initiated by the addition of 10 μL kinase buffer containing 2.45 μM ERK2 IMAP substrate peptides (2.25 μM-unlabeled peptide and 200 nM-labeled peptide, and 75 μM ATP. The final reaction in each well of 25 μL consists of 0.19 nM mERK2, 900 nM unlabeled peptide, 80 nM labeled-peptide, and 30 uM ATP. Phosphorylation reactions were allowed to proceed for 45 minutes and were immediately quenched by the addition of 60 μL IMAP detection beads (1:1000 dilutions) in IMAP binding buffer (Molecular Devices) with 24 mM NaCl. Plates were read on EnVision reader after 60 minutes binding equilibration using Fluorescence Polarization protocol (Perkin Elmer).

[2] = molecular target: Active Human ERK2 (hERK2) (Homo sapiens (Human), UniProt P28482); experiment: Active Human ERK2 (hERK2) Activity Assay (IMAP-FP); format: biochemical; conditions: phosphorylated active hERK2 0.5 nM, 30 μM ATP, 10 point titration, read-out: ERK 2 Human average IC50
Chain of Active Human ERK2 (hERK2) (P28482 whole entry): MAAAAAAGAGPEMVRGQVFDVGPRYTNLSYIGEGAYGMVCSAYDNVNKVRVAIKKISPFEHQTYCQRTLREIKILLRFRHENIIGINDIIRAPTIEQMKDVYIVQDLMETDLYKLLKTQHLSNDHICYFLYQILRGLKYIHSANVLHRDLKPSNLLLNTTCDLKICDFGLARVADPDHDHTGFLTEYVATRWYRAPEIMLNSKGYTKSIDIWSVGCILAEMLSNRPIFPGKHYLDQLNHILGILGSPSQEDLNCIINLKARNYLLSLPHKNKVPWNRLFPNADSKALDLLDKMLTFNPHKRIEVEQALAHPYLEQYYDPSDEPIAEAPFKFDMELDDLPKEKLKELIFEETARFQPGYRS
Protocol: Assays Active Human ERK2 (hERK2) Activity Assay:
as §1, with “procedure. […]” for “procedure. To each well of a black Corning 384-well plate (Corning Catalog #3575), 7.5 nL of compound (3333 fold dilution in final assay volume of 25 μL) was dispensed, followed by the addition of 15 μL of kinase buffer (tween containing kinase buffer, Molecular Devices) containing 0.0133 ng/mL (0.316 nM) of phosphorylated active mERK2 enzyme.”, “of 0.5” for “of 0.19”, “nM hERK2,” for “nM mERK2,”, “30 μM” for “30 uM”, “for 60” for “for 45”

Chain of Active Mouse ERK2 (mERK2) (P63085 whole entry): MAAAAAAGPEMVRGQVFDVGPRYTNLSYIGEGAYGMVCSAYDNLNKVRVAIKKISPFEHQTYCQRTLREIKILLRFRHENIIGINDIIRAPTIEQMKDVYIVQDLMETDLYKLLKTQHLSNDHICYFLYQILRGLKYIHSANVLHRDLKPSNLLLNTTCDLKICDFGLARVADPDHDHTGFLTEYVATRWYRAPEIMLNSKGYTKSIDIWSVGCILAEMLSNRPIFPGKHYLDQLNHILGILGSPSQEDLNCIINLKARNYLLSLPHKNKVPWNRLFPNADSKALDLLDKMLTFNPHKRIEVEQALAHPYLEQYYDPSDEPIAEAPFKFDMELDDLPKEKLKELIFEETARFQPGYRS

| SMILES | pIC50 [1] | pIC50 [2] |
| --- | --- | --- |
| Cc1cc(-c2n[nH]c3cc4[nH]c(=O)c(Cc5ccccc5)cc4cc23)ccn1 [Example 3, 6-benzyl-3-(2-methylpyridin-4-yl)-1,8-dihydro-7H-pyrazolo[4,3-g]quinolin-7-one] | 9.70 | – |
| Cc1cc(-c2n[nH]c3cc4[nH]c(=O)c(Br)cc4cc23)ccn1 [Example 2, 6-bromo-3-(2-methylpyridin-4-yl)-1,8-dihydro-7H-pyrazolo[4,3-g]quinolin-7-one] | 9.70 | – |
| Cc1cc(-c2n[nH]c3cc4c(cc23)CN([C@@H]2CCCCc3ccccc32)C(=O)N4)ccn1 [Example 22, (R)-3-(2-methylpyridin-4-yl)-6-(6,7,8,9-tetrahydro-5H-benzo[7]annulen-5-yl)-5,6-dihydro-1H-pyrazolo[4,3-g]quinazolin-7(8H)-one] | – | 7.62 |
| C[C@H](c1ccccc1)n1c(=O)[nH]c2cc3[nH]nc(-c4ccc5nnn(C)c5c4)c3cc2c1=O [Example 15, (R)-3-(1-methyl-1H-benzo[d][1,2,3]triazol-6-yl)-6-(1-phenylethyl)-1H-pyrazolo[4,3-g]quinazoline-5,7(6H,8H)-dione] | – | 8.77 |
| Cc1cc(-c2n[nH]c3cc4[nH]c(=O)ccc4cc23)ccn1 [Example 1, 3-(2-methylpyridin-4-yl)-1,8-dihydro-7H-pyrazolo[4,3-g]quinolin-7-one] | 9.40 | – |

Results, then the molecule that gave them:

| pIC50 [1] | pIC50 [2] | SMILES |
| --- | --- | --- |
| – | 7.92 | O=c1ccc2cc3c(N4CCOCC4)n[nH]c3cc2[nH]1 [Example 24, 3-morpholino-1H-pyrazolo[4,3-g]quinolin-7(8H)-one] |
| – | 8.00 | C[C@H](c1ccccc1)N1Cc2cc3c(OC4CCOCC4)n[nH]c3cc2NC1=O [Example 39, (R)-6-(1-phenylethyl)-3-((tetrahydro-2H-pyran-4-yl)oxy)-5,6-dihydro-1H-pyrazolo[4,3-g]quinazolin-7(8H)-one] |
| – | 7.38 | O=c1ccc2cc3c(N4CCCCC4)n[nH]c3cc2[nH]1 [Example 25, 3-(piperidin-1-yl)-1H-pyrazolo[4,3-g]quinolin-7(8H)-one] |
| – | 8.05 | C[C@H](c1ccccc1)N1Cc2cc3c(N4CCOCC4)n[nH]c3cc2NC1=O [Example 42, (R)-3-morpholino-6-(1-phenylethyl)-5,6-dihydro-1H-pyrazolo[4,3-g]quinazolin-7(8H)-one] |
